How the values were obtained:
S-protein RBD (WT) = target: T1, S-protein RBD (WT) (Severe acute respiratory syndrome coronavirus 2, UniProt P0DTC2); type: binding, SARS-CoV-2
T1 construct: made in house; host or cells: Expi293F cells

[1] = target: T2, SARS-CoV-2 S-protein RBD WT (Severe acute respiratory syndrome coronavirus 2, UniProt P0DTC2); type: binding; details: immobilized heparin, 1:1 Langmuir global fit, 25° C.
T2 construct: made in house; host or cells: Expi293F cells

[2] = test system: SARS-CoV-2 pseudotyped viral particles (wild-type); type: binding

| Molecule | inhibition of the S-protein-heparin interaction (FIG. 5) (S-protein RBD (WT)) | IC50 (S-protein RBD (WT); read-out: IC50 against the S-protein RBD binding to immobilized heparin) [nM] | ka [1] | kd [1] | inhibition of pseudotyped viral particle binding to heparin surface compared with heparin control [2] |
| --- | --- | --- | --- | --- | --- |
| O=S(=O)(O)c1cc2c(O)c(c1)Cc1cc(S(=O)(=O)O)cc(c1O)Cc1cc(S(=O)(=O)O)cc(c1O)Cc1cc(S(=O)(=O)O)cc(c1O)Cc1cc(S(=O)(=O)O)cc(c1O)Cc1cc(S(=O)(=O)O)cc(c1O)Cc1cc(S(=O)(=O)O)cc(c1O)Cc1cc(S(=O)(=O)O)cc(c1O)C2 [GL-522-Y-1] | more modest inhibition activity |  |  |  |  |
| heparin |  | 56 | 1427 1/MS | 2.5 × 10^−4 1/S |  |
| mucopolysaccharide polysulfate [MPS] | potently inhibited |  |  |  | stronger inhibition |
| pentosan polysulfate [PPS] | potently inhibited |  |  |  | stronger inhibition |
| sulfated lactobionic acid | more modest inhibition activity |  |  |  |  |

Source: US20240066051A1 (priority 2022, published 2024)
